Assay results reported in publication PMC2374418, “A prolonged methoxymorpholino doxorubicin (PNU-152243 or MMRDX) infusion schedule in patients with solid tumours: a phase 1 and pharmacokinetic study” (British Journal of Cancer, 2000).

Key:
[1] = tested on: patients with intrinsic anthracycline-resistant tumours; experiment: Phase I toxicity (CTC grading), MMRDX as 3 h intravenous infusion once every 4 weeks
Text: Nowadays, anthracyclines play an important role in chemothera- peutic treatment of a wide variety of tumour types. The clinical use of anthracyclines is limited by their toxicity profile, especially irreversible, cumulative dose-related cardiotoxicity, and by intrinsic or acquired resistance of tumours cells. Mechanisms of this resistance consist of several pathways, such as overexpression of drug efflux pumps (i.e. P-glycoprotein), decrease in topoiso- merase II enzyme levels, and increase in cellular detoxifying capacity (Kaye and Merry, 1985; Deffie et al, 1989; de Jong et al, 1990; Ford and Hait, 1990; Roninson, 1997). Morpholinyl anthracyclines, such as methoxymorpholino doxorubicin (MMRDX or PNU-152243), were synthesized in search for new anthracyclines with at least partially novel modes of action, including activity on multidrug-resistant (MDR) tumours. MMRDX is a novel doxorubicin derivative in which the nitrogen atom of the daunosamine is enclosed in a methoxymor- pholino ring (Figure 1). […] The working mechanism of morpholinyl anthracyclines appears to be different from other anthracyclines. Morpholinyl anthracyclines inhibit ribosomal gene transcription as well as topoisomerase I-mediated DNA-cleavage (Wassermann et al, 1988, 1990). […] Metabolic conversion of MMRDX by human liver microsomes and NADPH potentiated the cytotoxicity in an ovarian carcinoma cell line (Lau et al, 1994). […] Therefore, we decided to perform a phase I study with MMRDX administered as a 3 h infusion every 4 weeks in order to try to increase the MTD as compared with bolus administration. In addition, we assessed pharmacokinetics of prolonged MMRDX-infusion. A prolonged methoxymorpholino doxorubicin (PNU- 152243 or MMRDX) infusion schedule in patients with solid tumours: a phase 1 and pharmacokinetic study E Fokkema1 , J Verweij2 , AT van Oosterom3 , DRA Uges1 , R Spinelli4 , O Valota4 , EGE de Vries1 and HJM Groen1 1 Department of Pulmonology, Department of Pharmacy, Department of Internal Medicine, University Hospital Groningen, PO Box 30.001, 9700 RB Groningen, The Netherlands; 2 Rotterdam Cancer Institute and University Hospital, Rotterdam, The Netherlands; 3 University Hospital Leuven, Belgium; 4 Pharmacia & Upjohn, Milan, Italy Summary The aim of this phase I study was to assess feasibility, pharmacokinetics and toxicity of methoxymorpholino doxorubicin (MMRDX or PNU-152243) administered as a 3 h intravenous infusion once every 4 weeks. […] The first cohort of patients was treated with 1 mg m-2 of MMRDX. The next cohorts received 1.25 mg m-2 and 1.5 mg m-2 respectively. […] (c) 2000 Cancer Research Campaign Keywords: methoxymorpholino doxorubicin; pharmacokinetics; phase I study 767 Received 6 January 1999 Revised 2 August 1999 Accepted 25 August 1999 Correspondence to: EGE de Vries British Journal of Cancer (2000) 82(4), 767-771 (c) 2000 Cancer Research Campaign DOI: 10.1054/ bjoc.1999.0996, available online at http://www.idealibrary.com on PATIENTS AND METHODS Patients The study was performed between December 1994 and June 1996. Patients with intrinsic anthracycline-resistant tumours were accrued in three different centres in Belgium and The Netherlands.

[2] = tested on: patients; design: method as in Vasey et al, 1995; details: ref Vasey et al, 1995, cited from earlier work
[3] = tested on: various tumour cell lines, including MDR tumour cell lines; design: method as in ref Danesi et al, 1993; Kuhl et al, 1993; van der Graaf et al, 1995; Bakker et al, 1997; details: ref Danesi et al, 1993, Kuhl et al, van der Graaf et al, 1995, Bakker et al, 1997; cited from earlier work

SMILES: COc1cccc2c1C(=O)c1c(O)c3c(c(O)c1C2=O)C[C@@](O)(C(=O)CO)C[C@@H]3O[C@H]1C[C@H](N2CCO[C@H](OC)C2)[C@H](O)[C@H](C)O1 [MMRDX, methoxymorpholino doxorubicin]
- Leucocytes, CTC grade IV toxicity ([1]; 1.25 mg m-2, 17 cycles): 0 % of total number of cycles
- Neutrophils, CTC grade III toxicity ([1]; 1.25 mg m-2, 17 cycles): 0 % of total number of cycles
- Neutrophils, CTC grade IV toxicity ([1]; 1.25 mg m-2, 17 cycles): 0 % of total number of cycles
- Platelets, CTC grade III toxicity ([1]; 1.25 mg m-2, 17 cycles): 0 % of total number of cycles
- Platelets, CTC grade IV toxicity ([1]; 1.25 mg m-2, 17 cycles): 0 % of total number of cycles
- Patients with grade III/IV haematological toxicity ([1]; 1.25 mg m-2, six patients treated): one patient
- Death with neutropenic fever / sepsis during febrile neutropenia ([1]; 1.5 mg m-2): One patient
- Grade III/IV fatigue ([1]; 1.5 mg m-2): one out of 11 cycles
- Grade III/IV infection ([1]; 1.5 mg m-2): four out of 11 cycles
- Median (range) nadir of leucocytes over all evaluable cycles ([1]; 1.5 mg m-2): 1.4 (0.2-7.5) x 109 l-1
- Median (range) nadir of neutrophils over all evaluable cycles ([1]; 1.5 mg m-2): 0.5 (0.2-7.3) x 109 l-1
- Median (range) nadir of platelets over all evaluable cycles ([1]; 1.5 mg m-2): 55 (8-119) x 109 1-1
- Nausea and vomiting exceeding grade II ([1]; 1.5 mg m-2): two out of 11 cycles
- Patients with grade III/IV haematological toxicity ([1]; 1.5 mg m-2): all five patients
- Transient elevations in total bilirubin reaching CTC grade II ([1]; 1.5 mg m-2): 3/11
- Neutrophils, CTC grade III toxicity ([1]; 1.5 mg m-2, 7 cycles): 29 % of total number of cycles
- Neutrophils, CTC grade IV toxicity ([1]; 1.5 mg m-2, 7 cycles): 43 % of total number of cycles
- Platelets, CTC grade III toxicity ([1]; 1.5 mg m-2, 9 cycles): 22 % of total number of cycles
- Platelets, CTC grade IV toxicity ([1]; 1.5 mg m-2, 9 cycles): 11 % of total number of cycles
- Leucocytes, CTC grade III toxicity ([1]; 1.5 mg m-2, 10 cycles): 40 % of total number of cycles
- Leucocytes, CTC grade IV toxicity ([1]; 1.5 mg m-2, 10 cycles): 30 % of total number of cycles
- Cycles reduced from 1.5 mg m-2 to 1.25 mg m-2 because of haematological toxicity ([1]; 1.5 mg m-2, three out of five patients): Four out of 11 cycles
- Patients with neutropenic fever ([1]; 3 h i.v. infusion): Three patients
- Maximum tolerated dose (MTD) ([1]; 3 h i.v. infusion every 4 weeks): 1.25 mg m-2
- CTC grade III/IV nausea and vomiting ([1]; 3 h i.v. infusion, 1.25 mg m-2): 1/18
- Transient elevation in transaminases up to CTC grade III ([1]; 3 h i.v. infusion, 1.25 mg m-2): 2/16
- CTC grade III neutropenia ([1]; 3 h i.v. infusion, 1.5 mg m-2): 2/7
- CTC grade III/IV nausea and vomiting ([1]; 3 h i.v. infusion, 1.5 mg m-2): 2/11
- CTC grade IV neutropenia ([1]; 3 h i.v. infusion, 1.5 mg m-2): 3/7
- Thrombocytopenia grade III ([1]; 3 h i.v. infusion, 1.5 mg m-2): 2/9
- Thrombocytopenia grade IV ([1]; 3 h i.v. infusion, 1.5 mg m-2): 1/9
- Transient elevation in transaminases up to CTC grade III ([1]; 3 h i.v. infusion, 1.5 mg m-2): 4/11
- Cardiotoxicity ([1]; 3 h i.v. infusion, all dose levels): No cardiotoxicity
- LVEF at the end of treatment in eight patients ([1]; after two to six cycles): No significant decreases
- Grade III/IV toxicity for haemoglobin ([1]; all dose levels): No grade III/IV toxicity
- Phlebitis at the infusion site, nephro- and neurotoxicity ([1]; all dose levels): No phlebitis at the infusion site and no nephro- or neurotoxicity
- Start of late nausea and vomiting ([1]; all dose levels): around 4 days after treatment
- Decrease in LVEF, one patient ([1]; highest dose level, after three cycles, LVEF remained in the normal range): 13%
- Time of late haematological toxicity ([1]; main toxicity): ~22 day
- Cumulative haematological toxicity for subsequent cycles ([1]; overall): no cumulative haematological toxicity for subsequent cycles, except for platelets at the highest dose level
- Grade IV neutropenia ([2]; 1.5 mg m-2 bolus every 3 weeks): 14 % of administered cycles
- Dose-limiting toxicity (DLT) ([2]; bolus injection every 3 weeks): myelosuppression (neutropenia and thrombocytopenia)
- Maximum tolerated dose (MTD) ([2]; bolus injection every 3 weeks): 1.5 mg m-2
- Plasma clearance ([2]; bolus): 650 ml min-1 m-2
- t1/2 after a rapid distribution phase ([2]; bolus): 40 h
- Tumour responses ([2]; head and neck (one out of three), cervical cancer (one out of five), colorectal cancer (two out of 20)): four responses
- Cytotoxic activity in vitro [3]: potent cytotoxic activity
